Results on 2 compounds are retold here after US20230172873A1, “Uses and Formulations of Cannabinoids” (priority 2020, published 2023).

Read-outs that look alike come from different tables or passages of the source.

One series deals with CD83. As to conditions: dendritic cells derived from individuals with HIV infection; cited from earlier work.
For series [1] the following is noted: mice; 120 mg/kg single dose (Deiana et al. 2012); cited from earlier work.
The subject of series [2] is chemically induced acute hepatitis. Particulars: mice, cited from earlier work.
Series [3] relates to activated memory T cell line. Particulars: 1-5 µmol/l (Kozela et al. 2013), cited from earlier work.
Series [4] relates to IL-6 secretion. Particulars: cellular models, majority of cases (Chen et al. 2016); cited from earlier work.
The subject of the next series is human mononuclear cells. Particulars: nanomolar or micromolar concentrations; cited from earlier work.
In series [5] the test system is ischemia-reperfusion-induced kidney injury. Particulars: mice, cited from earlier work.
Series [6] deals with IL-6 secretion. As to conditions: conversion of the effective concentration.
Series [7] is described as follows: Systemic exposure after i.p. and oral application of CBD in mice. It is filed as in vivo. As to conditions: 20 mg/kg; assuming dose-proportional plasma concentrations. On the procedure:
A comparative investigation for systemic exposure after i.p. and oral application of CBD in mice and rats has shown that 120 mg/kg as a single dose leads to a maximum plasma concentration of 14,000 ng/ml in mice (S. Deiana et al. (2012). Plasma and brain pharmacokinetic profile of cannabidiol (CBD), cannabidivarine (CBDV), Delta(9)-tetrahydrocannabivarin (THCV) and cannabigerol (CBG) in rats and mice following oral and intraperitoneal administration and CBD action on obsessive-compulsive behaviour. Psychopharmacology (Berl) 219(3): 859-73).

In a further series the test system is NK, NKT, T and B cells. As to conditions: healthy rats, cited from earlier work.
The next series deals with microglial cells. As to conditions: 1-16 µmol/l (Wu et al. 2012); cited from earlier work.
The next series has as its system human neutrophils. Particulars: McHugh et al. 2008; cited from earlier work.
The test system of series [8] is LPS-induced acute lung injury. As to conditions: mice, 20 mg/kg, cited from earlier work.
A short description of series [9]: log P (n-octanol/water partition coefficient). Format: physicochemical. As to conditions: active ingredient of Example 9. On the procedure: In fact, cannabinoids are highly lipophilic molecules (log P 6-7) with very low water solubility (2-10 µg / ml). The log P is the decimal logarithm of the n-octanol/water partition coefficient. The partition coefficient can be determined experimentally. Values typically refer to room temperature (25° C.). The partition coefficient can also be roughly calculated from the molecular structure.

For series [10], the system named is LPS-induced acute lung injury. Particulars: cited from earlier work.
The subject of another series is inflammatory processes. Particulars: cited from earlier work.
For the next series, the target named is T1, IL-6 receptor (Homo sapiens, UniProt P08887).
T1 sequence (P08887 20-468): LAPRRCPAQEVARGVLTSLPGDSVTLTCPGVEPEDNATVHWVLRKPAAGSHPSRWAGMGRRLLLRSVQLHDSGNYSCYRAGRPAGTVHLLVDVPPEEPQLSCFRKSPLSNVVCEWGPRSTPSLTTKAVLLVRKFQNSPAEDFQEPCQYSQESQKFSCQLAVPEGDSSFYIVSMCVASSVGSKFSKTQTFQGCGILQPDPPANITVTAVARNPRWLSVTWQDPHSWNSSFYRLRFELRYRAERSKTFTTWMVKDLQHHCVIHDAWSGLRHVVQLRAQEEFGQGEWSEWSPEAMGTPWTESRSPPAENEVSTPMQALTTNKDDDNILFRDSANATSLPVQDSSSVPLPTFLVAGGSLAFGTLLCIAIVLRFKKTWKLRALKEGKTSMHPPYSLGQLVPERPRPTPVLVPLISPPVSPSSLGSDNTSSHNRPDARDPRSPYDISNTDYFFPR
Particulars: patients with rheumatoid arthritis and systemic juvenile idiopathic arthritis; cited from earlier work.

Setting [11] is: mice, 0.3-80 mg/kg i.p. 60 minutes before LPS (Ribeiro et al. 2012).

In the case of `C=C(C)[C@@H]1CCC(C)=C[C@H]1c1c(O)cc(CCCCC)cc1O` [CBD, 2-[(1R,6R)-3-methyl-6-(1-methylethenyl)-2-cyclohexen-1-yl]-5-pentyl-1,3-benzenediol], the “CD83 dendritic cell activation marker” value in the series on CD83 is on record as “suppresses”. For the same compound, the maximum plasma concentration in series [1] is given as 14,000 ng/ml. Moreover, the “expression of MDSCs” value in [2] (25 mg/kg (Hegde et al. 2011)) is given as “induces the expression of MDSCs”. For the same compound, the “pro-inflammatory cytokines such as IL-2, TNF-α and IL-6” value in series [2] (25 mg/kg) is recorded as “reduction”. In series [3], the “IL-6 production and secretion” value is “decreased”; the “production of IL-10” value is “increased”. In addition, in series [3] (dose-dependently), the “autoantigen-specific Th17 cell phenotype (Th17 signature cytokine IL-17)” value is “reduces”. The “effective concentration for suppressive effect on IL-6 secretion” value in the series with IL-6 secretion [4] is ~5 µM. Besides, the “release of pro-inflammatory cytokines” value in the series on human mononuclear cells was “suppressed”. In series [5] (10 mg/kg after induced kidney injury (Baban et al. 2018)), the kidney protection result is listed as “renoprotective”. Further, the “decreased Treg17 and increased Th17 levels” value in series [5] (10 mg/kg after induced kidney injury) was “reversed these effects”. In addition, the “resulting concentration (5 µM converted with molecular weight 314.5 g/mol)” value with IL-6 secretion [6] was 1,570 ng/ml. Also, in [7], the target peak exposure was 2,300 ng/ml. Also, the “numbers of natural killer (NK) cells and natural killer T (NKT) cells” value in the series on NK, NKT, T and B cells (2.5 mg/kg per day) is “increased”. Further, in the series on NK, NKT, T and B cells (5 mg/kg per day), the “numbers of natural killer (NK) cells and natural killer T (NKT) cells” value was “not affected”. Besides, in the series with NK, NKT, T and B cells (daily 5 mg/kg), the “number of B cells” value was “significantly reduced”; the “number of T cells including T helper cells and cytotoxic T cells” value is listed as “significantly reduced”. In addition, in the series with microglial cells, the “apoptosis in microglial cells” value is “induces apoptosis”. Besides, the “migration of human neutrophils” value in the series with human neutrophils was “inhibits”. Also, in series [8] (6 h after LPS (Ribeiro et al. 2014)), the mechanical lung function entry is listed as “improved”. Further, in [8] (6 h after LPS), the “leukocyte migration (neutrophil, macrophages and lymphocytes) into the lungs” value is on record as “decreased”; the “myeloperoxidase activity in the lung tissue” value is reported as “decreased”; the “production of proinflammatory cytokines/chemokines” value was “reduced”; the vascular permeability result is given as “reduced”. The logP in [9] is ~6.1. The “number of leukocytes including macrophages and neutrophils in the bronchoalveolar lavage fluid” value in [10] (mice, 20 mg/kg, after LPS-induced lung inflammation) is “decreases”. In series [10] (setting [11]), the Total leukocytes migration result is listed as “significantly decreased”; the myeloperoxidase activity entry is reported as “significantly decreased”; the “pro-inflammatory cytokine production including TNF-a and IL-6” value is reported as “significantly decreased”; the vascular permeability entry is given as “significantly decreased”. In addition, in series [10] (prophylactic application, i.p.), the “dose at which effects reached a nearly maximum extent” value is 20 mg/kg. The “circulating IL-6” value with inflammatory processes (animal models including diabetes, asthma, pancreatitis and hepatitis (Nichols and Kaplan 2020)) was “suppress”. For the same compound, the “regulatory T cells (Tregs)” value in the series on inflammatory processes (several disease models (Nichols and Kaplan 2020)) is given as “induce regulatory T cells (Tregs)”.
For the compound “tocilizumab: a humanized anti-IL-6 receptor antibody”, in the series with IL-6 receptor, the efficacy entry is reported as “verified its efficacy” and the safety entry is on record as “tolerable safety”.

As usually defined, the logP is the decadic logarithm of the partition coefficient of the neutral form, usually between octanol and water. Low readings indicate a more hydrophilic compound, high ones a more lipophilic compound.
